According to a melting point compilation (Tetko et al.; mined from patent text by program, amines drawn as free bases though some values may be those of a salt):

Structure (SMILES)	melting point
CCCCCS(=O)(=O)NC(=O)/C=C/c1ccc(OCCOC)cc1Oc1ccc(C(F)(F)F)cc1Cl	134 to 135 °C
CC1CCCN(C(=O)c2nc(-c3ccccc3)nc3ccccc23)C1 (stereo not given)	116 °C
C=Cc1c(F)c(N2CC3CN(C)CC3C2)c(F)c2c1c(=O)c(C(=O)O)cn2C1CC1 (stereo not given)	156 to 157 °C
CC(=O)NC(=O)N1CCSC1c1ccccc1OCCN1CCN(c2cccc(F)c2)CC1 (stereo not given)	142 to 143 °C
COC(C)(CC(=O)Nc1ccccc1)OC	80 °C
CCCCCNC(=O)N(C)c1cccc(-c2ccc(C=C(OC)C(=O)O)cc2OCCOCC)c1	78.2 °C
COCc1c2c(n(Cc3ccccc3)c1-c1ccccc1)C(C)CN(Cc1ccccc1)C2 (stereo not given)	140 to 141 °C
COc1ccc(Cl)cc1C(=O)NCCc1ccc(CCCCCCCC(=O)O)cc1	103 to 106 °C
CN(C)C(=O)N1CCC(=NO)c2cc(F)ccc21	147 to 150 °C
Nc1cc(Cc2n[nH]c(=O)c3ccccc23)ccc1Cl	227 to 228 °C
C#CCOc1cc(-n2c(Cl)c(C#N)n(CCC)c2=O)c(F)cc1Cl	122 °C
CN1N=C(c2ccccc2)C(C)(C)NC1=O	128 to 130 °C
CCC(C)C[C@@H]1O[C@H](CC(=O)Nc2cccc(OC(F)(F)C(=O)O)c2)C(=O)N(CC(C)(C)CO)c2ccc(Cl)cc21 (stereo not given in full)	119 to 121 °C
CN1CCN(c2cccc3c2C[C@H](NC(=O)c2ccc(N4CCNCC4)cc2)CO3)CC1	> 102 °C
Cn1c(=O)ccc2cnc(N3CCC[C@H]3CO)nc21	143 to 144 °C
Cc1ccc(S(=O)(=O)n2c(-c3cn(C)c4ccc(-c5ccncc5)cc34)cc3cccnc32)cc1	82 to 85 °C
Cc1nc(-c2ccccc2)n(-c2ccc(S(N)(=O)=O)cn2)n1	203 to 204 °C
CCOC(=O)c1cn(NC)c2cc3c(cc2c1=O)OCO3	211 to 218 °C
CCC(C)COC(=O)c1ccc(OC(=O)c2ccc(O)cc2)cc1 (stereo not given)	90.8 to 92.6 °C
CCOc1ccc(C2=NC(=O)C(C)(C(C)C)N2)nc1 (stereo not given)	143 to 145 °C

Structure (SMILES)	melting point
CCC(=O)NCCC1=CCc2cnc3c(c21)CCO3	111 to 112 °C
COC(=O)C1CCC(=O)c2c(-c3ccc(Cl)cc3)noc2C1 (stereo not given)	108 to 109 °C
CC12CCC(OC(=O)c3ccc(Cl)cc3)CC1=CCC1C2CCC2(C)C(=NO)CCC12 (stereo not given)	167 to 170 °C
CCN(CC)CCC(=O)Nc1ccc2c(=O)c3ccc(NC(=O)CCN(CC)CC)cc3[nH]c2c1	> 320 °C
CCn1c(OC(C)C)n[nH]c1=O	69 to 70 °C
CC(C)(C)NC(=O)NC1(C#N)CCC1	212 to 214 °C
O=P1(c2cccc(F)c2)c2ccccc2CN1c1ccccc1 (stereo not given)	209 to 210 °C
O=C(c1cccs1)c1cnn2c(-c3cccc(NC(=S)Nc4ccccc4)c3)ccnc12	124 to 126 °C
O=C1O[C@@H](Cn2ccnn2)CN1c1ccc(-c2ccc(C3=NOC(CNCCc4ccncc4)C3)nc2)c(F)c1 (stereo not given in full)	181 °C
COC(=O)c1cc(C=O)c(NS(C)(=O)=O)c([N+](=O)[O-])c1	158 to 160 °C
Cc1ccc(-c2cccc(/C=C/C(=O)Nc3ccc(CN4CCN(Cc5ccc6c(c5)OCO6)CC4)cc3)c2)cc1	204 to 207 °C
O=c1[nH]c(=O)n2c3c(cccc13)S(=O)c1ccc(C(F)(F)F)cc1-2 (stereo not given)	302 to 304 °C
CS(=O)(=O)Nc1cccc(Nc2nc(NCc3ccccc3CO)c3nc[nH]c3n2)c1	145 to 148 °C
CCCOc1ccc(C(=O)CN2CCOCC2)cc1-c1nc2c(CCC)nn(C)c2c(=O)[nH]1	128 to 129 °C
Cc1csc2[nH]c(=O)c(=O)[nH]c12	> 320 °C
O=C(O)c1ccc(C2=NCCO2)cc1	> 300 °C
CC1Cc2c(N=C3OC(=O)C4=C3CCCC4)ccc(Cl)c2O1 (stereo not given)	125 to 127 °C
CCCCCCCCCCOc1cc(O)cc(C(=O)OC)c1	92 to 94 °C
CCS(=O)(=O)Oc1cn(C)c2cc(F)ccc2c1=O	154 to 156 °C
COc1ccc(C2(c3ccc(OC)cc3)C(Cl)(Cl)C23CCCCC3)cc1	121 to 122 °C
